From patent US20090048301A1 (IMCLONE SYSTEMS INCORPORATED, priority 2003, published 2009) come the findings set out here.

SMILES strings stand for the structures.

The test system of this test is bovine tubulin. The test can be described thus: In vitro tubulin polymerization assay (turbidity at 340 nm). The following applies: 10 μM compound, 30 minute data point, vs 1% DMSO control. It counts as biochemical. The method, boiled down:
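Bovine tubulin (97%, <3% MAPs) at 3 mg/ml final in G-PEM pH 7 with 1 mM GTP and 5% glycerol, added cold to compound wells at 37° C (1% DMSO final). A340 read each minute for 30 min; percent inhibition from 30-min point versus DMSO control.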
Turning to `c1cncc(CNc2ccccc2-c2cnc(Nc3ccc4c(c3)OCCO4)o2)c1` [Compound 248, (2,3-Dihydro-benzo[1,4]dioxin-6-yl)-(5-{2-[(pyridin-3-ylmethyl)-amino]-phenyl}-oxazol-2-yl)-amine], the “Tubulin Assay: percent inhibition at 10 μM based on 30 minute data” value (shortened to “Tubulin Assay: percent inhibition”) is 79%.
Turning to `c1cnc(NCC2COCCO2)c(-c2nnc(Nc3ccc4c(c3)OCO4)[nH]2)c1` (stereo not shown) [Compound 47, {3-[5-(Benzo[1,3]dioxol-5-ylamino)-4H-[1,2,4]triazol-3-yl]-pyridin-2-yl}-[1,4]dioxan-2-ylmethyl-amine], the “Tubulin Assay: percent inhibition” value is given as 24%.
Consider `c1cncc(COc2ccccc2-c2cnc(Nc3ccc4c(c3)OCCO4)o2)c1` [Compound 254, (2,3-Dihydro-benzo[1,4]dioxin-6-yl)-{5-[2-(pyridin-3-ylmethoxy)-phenyl]-oxazol-2-yl}-amine], for which the “Tubulin Assay: percent inhibition” value was 95%.
For the compound `COc1cccc(Nc2nnc(-c3cccnc3NCc3ccc4c(c3)CCO4)[nH]2)c1` [Compound 37, (2,3-Dihydro-benzofuran-5-ylmethyl)-{3-[5-(3-methoxy-phenylamino)-4H-[1,2,4]triazol-3-yl]-pyridin-2-yl}-amine], the “Tubulin Assay: percent inhibition” value is 91%.
As for `COc1cc(Nc2ncccc2-c2nnc(-c3ccc(S(C)(=O)=O)cc3)o2)cc(OC)c1` [Compound 213, (3,5-Dimethoxy-phenyl)-{3-[5-(4-methanesulfonyl-phenyl)-[1,3,4]oxadiazol-2-yl]-pyridin-2-yl}-amine], the “Tubulin Assay: percent inhibition” value stood at 30%.
The figure for `CN(C)c1ccc(-c2nnc(Nc3ccc4c(c3)OCCO4)o2)c(NCc2ccc3c(c2)OCO3)c1` [Compound 232, (5-{2-[(Benzo[1,3]dioxol-5-ylmethyl)-amino]-4-dimethylamino-phenyl}-[1,3,4]oxadiazol-2-yl)-(2,3-dihydro-benzo[1,4]dioxin-6-yl)-amine] is 26%.
As for `COc1cccc(CNc2nnc(-c3ccccc3NCc3ccncc3)[nH]2)c1` [Compound 112, (3-Methoxy-benzyl)-(5-{2-[(pyridin-4-ylmethyl)-amino]-phenyl}-4H-[1,2,4]triazol-3-yl)-amine], the figure is 49%; as for `COc1ccc(CNc2ncccc2-c2nnc(Nc3ccc4c(c3)OCO4)o2)cc1OC` [Compound 158, {3-[5-(Benzo[1,3]dioxol-5-ylamino)-[1,3,4]oxadiazol-2-yl]-pyridin-2-yl}-(3,4-dimethoxy-benzyl)-amine], 90%.
The figure for `COc1cc(CNc2cc(N3CCN(C)CC3)ccc2-c2nnc(Nc3ccc4c(c3)OCCO4)o2)cc(OC)c1` [Compound 235, (2,3-Dihydro-benzo[1,4]dioxin-6-yl)-{5-[2-(3,5-dimethoxy-benzylamino)-4-(4-methyl-piperazin-1-yl)-phenyl]-[1,3,4]oxadiazol-2-yl}-amine] is 24%; for `COc1cc(Nc2nnc(-c3cccnc3NCCc3cccnc3)o2)cc(OC)c1OC` [Compound 204, (2-Pyridin-3-yl-ethyl)-{3-[5-(3,4,5-trimethoxy-phenylamino)-[1,3,4]oxadiazol-2-yl]-pyridin-2-yl}-amine] it is 28%.
With `FC(F)(F)c1cccc(-c2nnc(-c3cccnc3NCc3ccncc3)[nH]2)c1` [Compound 76, Pyridin-4-ylmethyl-{3-[5-(3-trifluoromethyl-phenyl)-4H-[1,2,4]thiazol-3-yl]-pyridin-2-yl}-amine], the “Tubulin Assay: percent inhibition” value stood at 21%.
For the compound `CN(C)c1ccc(-c2nnc(Nc3ccc4c(c3)OCCO4)o2)c(NCc2ccc(F)c(F)c2)c1` [Compound 233, {5-[2-(3,4-Difluoro-benzylamino)-4-dimethylamino-phenyl]-[1,3,4]oxadiazol-2-yl}-(2,3-dihydro-benzo[1,4]dioxin-6-yl)-amine], the “Tubulin Assay: percent inhibition” value is reported as 40%.
For the compound `COc1cccc(-c2nnc(-c3cccnc3NCCc3c[nH]cn3)[nH]2)c1` [Compound 90, [2-(1H-Imidazol-4-yl)-ethyl]-{3-[5-(3-methoxy-phenyl)-4H-[1,2,4]triazol-3-yl]-pyridin-2-yl}-amine], the “Tubulin Assay: percent inhibition” value is reported as 25%.
The figure for `Brc1cnn(-c2ncccc2-c2nnc(Nc3ccc4c(c3)OCCO4)o2)c1` [Compound 211, {5-[2-(4-Bromo-pyrazol-1-yl)-pyridin-3-yl]-[1,3,4]oxadiazol-2-yl}-(2,3-dihydro-benzo[1,4]dioxin-6-yl)-amine] is 73%; for `CN(C)c1ccc(-c2nnc(Nc3ccc4c(c3)OCCO4)o2)c(NCc2ccccn2)c1` [Compound 230, (2,3-Dihydro-benzo[1,4]dioxin-6-yl)-(5-{4-dimethylamino-2-[(pyridin-2-ylmethyl)-amino]-phenyl}-[1,3,4]oxadiazol-2-yl)-amine] it is 45%; for `COc1cc(Nc2ncccc2-c2nnc(Nc3cccc(N)c3)[nH]2)cc(OC)c1` [Compound 60b, N-{5-[2-(3,5-dimethoxy-phenylamino)-pyridin-3-yl]-4H-[1,2,4]triazol-3-yl}-benzene-1,3-diamine] it is 39%.
The figure for `COc1ccc(Nc2nnc(-c3ccccc3NCc3ccncc3)[nH]2)c(OC)c1` [Compound 114, (2,4-Dimethoxy-phenyl)-(5-{2-[(pyridin-4-ylmethyl)-amino]-phenyl}-4H-[1,2,4]triazol-3-yl)-amine] is 24%; for `NS(=O)(=O)c1cccc(Nc2ncccc2-c2nnc(Nc3ccc4c(c3)OCCO4)o2)c1` [Compound 191, 3-{3-[5-(2,3-Dihydro-benzo[1,4]dioxin-6-ylamino)-[1,3,4]oxadiazol-2-yl]-pyridin-2-ylamino}-benzenesulfonamide] it is 28%; for `COc1ccc(Nc2nnc(-c3cccnc3NCc3cccnc3)[nH]2)c(OC)c1` [Compound 27, {3-[5-(2,4-Dimethoxy-phenylamino)-4H-[1,2,4]triazol-3-yl]-pyridin-2-yl}-pyridin-3-ylmethyl-amine] it is 20%.
As for `COc1cc(CNc2ccccc2-c2nnc(-c3ccc(C(F)(F)F)cc3)[nH]2)cc(OC)c1` [Compound 140, (3,5-Dimethoxy-benzyl)-{2-[5-(4-trifluoromethyl-phenyl)-4H-[1,2,4]triazol-3-yl]-phenyl}-amine], the figure is 20%; as for `COc1cccc(Nc2nc(-c3cccnc3NCc3ccncc3)nn2C)c1` [Compound 69, {3-[5-(3-Methoxy-phenylamino)-1-methyl-1H-[1,2,4]triazol-3-yl]-pyridin-2-yl}-pyridin-4-ylmethyl-amine], 29%.
Turning to `COc1ccc(CNc2nnc(-c3cccnc3NCCCN3CCCC3=O)[nH]2)cc1` [Compound 57, 1-(3-{3-[5-(4-Methoxy-benzylamino)-4H-[1,2,4]triazol-3-yl]-pyridin-2-ylamino}-propyl)-pyrrolidin-2-one], the “Tubulin Assay: percent inhibition” value was found to be 22%.
